Measurements: patent US10246453B2, “Benzenesulfonamide compounds and their use as therapeutic agents” (Xenon Pharmaceuticals Inc., priority 2016, dated 2019)
Counter-ions that a name gives are not always drawn.

Experiments:
NaV1.1 = NaV1.1 (Homo sapiens (Human), UniProt P35498); test: Sodium Influx Assay (Flux), NaV1.1; assay type: cell-based; conditions: Trex HEK293 cells, ANG2 dye; arithmetic mean
NaV1.6 = NaV1.6 (Homo sapiens (Human), UniProt Q9UQD0); test: Sodium Influx Assay (Flux), NaV1.6; conditions: read-out: Flux NaV1.6 IC50; Trex HEK293 cells, ANG2 dye; arithmetic mean
NaV1.5 = NaV1.5 (Homo sapiens (Human), UniProt Q14524); test: Sodium Influx Assay (Flux), NaV1.5; conditions: read-out: Flux NaV1.5 IC50; Trex HEK293 cells, ANG2 dye; arithmetic mean
Chain of NaV1.5 (Q14524 other isoform, or with tags, fused parts or gaps): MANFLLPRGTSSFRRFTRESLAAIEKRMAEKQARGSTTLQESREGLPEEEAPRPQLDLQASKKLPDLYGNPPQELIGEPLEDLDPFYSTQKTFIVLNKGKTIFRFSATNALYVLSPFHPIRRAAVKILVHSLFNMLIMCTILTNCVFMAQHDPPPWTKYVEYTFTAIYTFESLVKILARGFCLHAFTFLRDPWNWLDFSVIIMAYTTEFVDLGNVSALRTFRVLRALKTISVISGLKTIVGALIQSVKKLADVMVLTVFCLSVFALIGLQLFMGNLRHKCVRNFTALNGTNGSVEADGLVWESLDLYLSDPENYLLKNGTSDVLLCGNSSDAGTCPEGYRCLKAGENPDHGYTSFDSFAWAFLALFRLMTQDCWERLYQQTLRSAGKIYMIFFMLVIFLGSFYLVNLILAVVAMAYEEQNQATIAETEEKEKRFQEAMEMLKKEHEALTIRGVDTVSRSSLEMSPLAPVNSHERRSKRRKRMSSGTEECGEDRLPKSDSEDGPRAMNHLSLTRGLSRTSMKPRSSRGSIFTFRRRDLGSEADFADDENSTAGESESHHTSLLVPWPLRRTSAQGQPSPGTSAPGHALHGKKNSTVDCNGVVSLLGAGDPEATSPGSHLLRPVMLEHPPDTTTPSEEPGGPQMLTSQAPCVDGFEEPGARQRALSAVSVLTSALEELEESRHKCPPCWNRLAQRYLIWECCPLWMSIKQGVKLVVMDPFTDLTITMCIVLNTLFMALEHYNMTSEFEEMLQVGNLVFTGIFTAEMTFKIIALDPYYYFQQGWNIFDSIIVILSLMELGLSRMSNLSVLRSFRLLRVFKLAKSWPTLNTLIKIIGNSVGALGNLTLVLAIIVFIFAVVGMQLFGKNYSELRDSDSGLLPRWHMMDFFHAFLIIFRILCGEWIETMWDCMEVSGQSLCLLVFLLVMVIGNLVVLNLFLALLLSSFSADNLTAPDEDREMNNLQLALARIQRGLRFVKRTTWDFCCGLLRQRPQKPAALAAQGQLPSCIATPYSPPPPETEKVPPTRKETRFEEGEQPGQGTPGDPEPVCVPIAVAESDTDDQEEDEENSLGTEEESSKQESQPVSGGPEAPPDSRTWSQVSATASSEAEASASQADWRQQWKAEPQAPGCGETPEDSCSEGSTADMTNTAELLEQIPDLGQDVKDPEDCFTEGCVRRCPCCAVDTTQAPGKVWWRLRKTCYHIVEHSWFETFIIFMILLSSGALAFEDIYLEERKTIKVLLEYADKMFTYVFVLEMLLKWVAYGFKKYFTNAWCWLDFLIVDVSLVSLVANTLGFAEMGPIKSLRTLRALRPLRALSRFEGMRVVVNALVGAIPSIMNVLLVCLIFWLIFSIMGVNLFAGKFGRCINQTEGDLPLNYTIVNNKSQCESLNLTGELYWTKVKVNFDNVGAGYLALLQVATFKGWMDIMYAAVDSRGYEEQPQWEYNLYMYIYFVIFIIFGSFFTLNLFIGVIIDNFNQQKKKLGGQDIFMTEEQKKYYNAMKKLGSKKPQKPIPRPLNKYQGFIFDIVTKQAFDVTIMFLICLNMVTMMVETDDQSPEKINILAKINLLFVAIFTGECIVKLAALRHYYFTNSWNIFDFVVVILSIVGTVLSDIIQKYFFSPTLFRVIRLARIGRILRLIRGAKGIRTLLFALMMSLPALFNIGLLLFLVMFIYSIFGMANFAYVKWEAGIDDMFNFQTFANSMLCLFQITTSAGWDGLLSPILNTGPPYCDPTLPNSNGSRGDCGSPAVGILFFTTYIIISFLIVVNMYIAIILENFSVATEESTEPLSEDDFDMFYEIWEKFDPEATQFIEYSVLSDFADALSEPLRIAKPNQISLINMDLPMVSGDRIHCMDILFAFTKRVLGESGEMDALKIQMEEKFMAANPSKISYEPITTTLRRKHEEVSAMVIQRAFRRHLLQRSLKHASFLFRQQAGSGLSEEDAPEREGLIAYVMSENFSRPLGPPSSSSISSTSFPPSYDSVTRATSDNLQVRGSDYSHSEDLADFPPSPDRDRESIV

IC50 (NaV1.1) [µM]	IC50 (NaV1.6) [µM]	Structure (SMILES)	IC50 (NaV1.5) [µM]
> 30	0.582	Cc1cc(S(=O)(=O)Nc2cscn2)c(F)cc1N(C)[C@H]1CCN(Cc2cc(C)n(C)n2)C1 [Example 141, (S)-4-((1-((1,5-dimethyl-1H-pyrazol-3-yl)methyl)pyrrolidin-3-yl)(methyl)amino)-2-fluoro-5-methyl-N-(thiazol-4-yl)benzenesulfonamide]	> 30
> 30	0.763	Cc1cc(S(=O)(=O)Nc2cscn2)c(F)cc1N(C)[C@H]1CCN(Cc2ccn(C)n2)C1 [Example 111, (S)-2-fluoro-5-methyl-4-(methyl(1-((1-methyl-1H-pyrazol-3-yl)methyl)pyrrolidin-3-yl)amino)-N-(thiazol-4-yl)benzenesulfonamide formate]	> 30
> 30	0.73	Cc1ccc(F)c(CN2CC[C@H](N(C)c3cc(F)c(S(=O)(=O)Nc4cscn4)cc3Cl)C2)n1 [Example 314, (S)-5-chloro-2-fluoro-4-((1-((3-fluoro-6-methylpyridin-2-yl)methyl)pyrrolidin-3-yl)(methyl)amino)-N-(thiazol-4-yl)benzenesulfonamide]	> 30
> 30	1.78	Cc1ccc(CN2CC[C@H](N(C)c3cc(F)c(S(=O)(=O)Nc4cscn4)cc3Cl)C2)o1 [Example 204, (S)-5-chloro-2-fluoro-4-(methyl(1-((5-methylfuran-2-yl)methyl)pyrrolidin-3-yl)amino)-N-(thiazol-4-yl)benzenesulfonamide]	> 30
> 30	0.185	Cc1cc(S(=O)(=O)Nc2cscn2)c(F)cc1N(C)[C@H]1CCN(Cc2ccn(CC(F)F)n2)C1 [Example 153, (S)-4-((1-((1-(2,2-difluoroethyl)-1H-pyrazol-3-yl)methyl)pyrrolidin-3-yl)(methyl)amino)-2-fluoro-5-methyl-N-(thiazol-4-yl)benzenesulfonamide 2,2,2-trifluoroacetate]	> 30
12.6	0.22	Cc1cc(S(=O)(=O)Nc2cscn2)c(F)cc1N(C)[C@H]1CCN(Cc2ccccc2F)C1 [Example 155, (S)-2-fluoro-4-((1-(2-fluorobenzyl)pyrrolidin-3-yl)(methyl)amino)-5-methyl-N-(thiazol-4-yl)benzenesulfonamide]	14.4
26.7	1.69	CN(c1cc(F)c(S(=O)(=O)Nc2cscn2)cc1Cl)[C@H]1CCN(Cc2cccc(C(F)F)n2)C1 [Example 160, (S)-5-chloro-4-((1-((6-(difluoromethyl)pyridin-2-yl)methyl)pyrrolidin-3-yl)(methyl)amino)-2-fluoro-N-(thiazol-4-yl)benzenesulfonamide]	> 30
29.2	3.2	COc1cccc(CN2CC[C@H](N(C)c3cc(F)c(S(=O)(=O)Nc4cscn4)cc3Cl)C2)n1 [Example 194, (S)-5-chloro-2-fluoro-4-((1-((6-methoxypyridin-2-yl)methyl)pyrrolidin-3-yl)(methyl)amino)-N-(thiazol-4-yl)benzene-sulfonamide]	23.5

Continued, molecule first:

Structure (SMILES)	IC50 (NaV1.1) [µM]	IC50 (NaV1.6) [µM]	IC50 (NaV1.5) [µM]
Cc1ccc(F)c(CN2CC[C@H](N(C)c3ccc(S(=O)(=O)Nc4cscn4)c(F)c3C)C2)n1 [Example 324, (S)-2-fluoro-4-((1-((3-fluoro-6-methylpyridin-2-yl)methyl)pyrrolidin-3-yl)(methyl)amino)-3-methyl-N-(thiazol-4-yl)benzenesulfonamide 2,2,2-trifluoroacetate]	> 30	0.403	> 30
CN(c1cc(F)c(S(=O)(=O)Nc2cscn2)cc1Cl)[C@H]1CCN(Cc2ccccc2O)C1 [Example 209, (S)-5-chloro-2-fluoro-4-((1-(2-hydroxybenzyl)pyrrolidin-3-yl)(methyl)amino)-N-(thiazol-4-yl)benzenesulfonamide]	20	2.15	20.2
Cc1cc(S(=O)(=O)Nc2cscn2)c(F)cc1N(C)[C@H]1CCN(Cc2ccccn2)C1 [Example 278, (S)-2-fluoro-5-methyl-4-(methyl(1-(pyridin-2-ylmethyl)pyrrolidin-3-yl)amino)-N-(thiazol-4-yl)benzenesulfonamide 2,2,2-trifluoroacetate]	> 30	0.893	> 30
C[C@H](c1cc(C(F)F)ccc1F)N1CCC(Oc2ccc(S(=O)(=O)Nc3cscn3)cc2Cl)CC1 [Example 292, (R)-3-chloro-4-((1-(1-(5-(difluoromethyl)-2-fluorophenyl)ethyl)piperidin-4-yl)oxy)-N-(thiazol-4-yl)benzenesulfonamide formate]	3.79	2.78	1.88
CN(c1cc(F)c(S(=O)(=O)Nc2cscn2)cc1Cl)[C@H]1CCN(Cc2ccccc2Cl)C1 [Example 198, (S)-5-chloro-4-((1-(2-chlorobenzyl)pyrrolidin-3-yl)(methyl)amino)-2-fluoro-N-(thiazol-4-yl)benzenesulfonamide]	5.36	1.46	4.7
CN(c1cc(F)c(S(=O)(=O)Nc2cscn2)cc1Cl)[C@@H]1CCN(Cc2ccccc2)C1 [Example 262, (R)-4-((1-benzylpyrrolidin-3-yl)(methyl)amino)-5-chloro-2-fluoro-N-(thiazol-4-yl)benzenesulfonamide]	25.2	13.3	28.8
CN(c1ccc(S(=O)(=O)Nc2cscn2)cc1C(F)(F)F)[C@H]1CCN(Cc2ccccc2)C1 [Example 294, (S)-4-((1-benzylpyrrolidin-3-yl)(methyl)amino)-N-(thiazol-4-yl)-3-(trifluoromethyl)benzenesulfonamide formate]	15.7	2.35	16.4
COc1cccnc1CN1CC[C@H](N(C)c2cc(F)c(S(=O)(=O)Nc3cscn3)cc2C)C1 [Example 120, (S)-2-fluoro-4-((1-((3-methoxypyridin-2-yl)methyl)pyrrolidin-3-yl)(methyl)amino)-5-methyl-N-(thiazol-4-yl)benzenesulfonamide formate]	> 30	0.39	22.9
CC(C)(c1ccccc1)N1CCC(Oc2cc(F)c(S(=O)(=O)Nc3nccs3)cc2Cl)CC1 [Example 60, 5-chloro-2-fluoro-4-((1-(2-phenylpropan-2-yl)piperidin-4-yl)oxy)-N-(thiazol-2-yl)benzenesulfonamide 2,2,2-trifluoroacetate]	13.3	0.452	15.9
CN(c1ccc(S(=O)(=O)Nc2ncns2)cc1Cl)[C@H]1CCN(Cc2ccccc2Cl)C1 [Example 252, (S)-3-chloro-4-((1-(2-chlorobenzyl)pyrrolidin-3-yl)(methyl)amino)-N-(1,2,4-thiadiazol-5-yl)benzenesulfonamide 2,2,2-trifluoroacetate]	17.1	0.304	8.08
CN(c1cc(F)c(S(=O)(=O)Nc2cscn2)cc1Cl)[C@H]1CCN(Cc2ncc3ccccn23)C1 [Example 184, (S)-5-chloro-2-fluoro-4-((1-(imidazo[1,5-a]pyridin-3-ylmethyl)pyrrolidin-3-yl)(methyl)amino)-N-(thiazol-4-yl)benzene-sulfonamide]	> 30	5.38	> 30
CCCc1ccc(CN2CC[C@H](N(C)c3cc(F)c(S(=O)(=O)Nc4cscn4)cc3Cl)C2)cc1 [Example 171, (S)-5-chloro-2-fluoro-4-(methyl(1-(4-propylbenzyl)-pyrrolidin-3-yl)amino)-N-(thiazol-4-yl)benzene-sulfonamide]	2.35	1.86	4.96
C[C@H](c1ccccc1)N1CC[C@H](N(C)c2cc(F)c(S(=O)(=O)Nc3cccc(F)n3)cc2Cl)C1 [Example 45, 5-chloro-2-fluoro-N-(6-fluoropyridin-2-yl)-4-(methyl((S)-1-((R)-1-phenylethyl)pyrrolidin-3-yl)amino)benzenesulfonamide 2,2,2-trifluoroacetate]	11.2	1.98	> 30
CN(c1cc(F)c(S(=O)(=O)Nc2cscn2)cc1Cl)[C@H]1CCN(Cc2cc(Cl)ccc2Cl)C1 [Example 197, (S)-5-chloro-4-((1-(2,5-dichlorobenzyl)pyrrolidin-3-yl)(methyl)amino)-2-fluoro-N-(thiazol-4-yl)benzenesulfonamide]	5.2	3.33	3.17
Cc1c(N(C)[C@H]2CCN(Cc3ccccc3)C2)cc(F)c(S(=O)(=O)Nc2ccc(F)cn2)c1F [Example 302, (S)-4-((1-benzylpyrrolidin-3-yl)(methyl)amino)-2,6-difluoro-N-(5-fluoropyridin-2-yl)-3-methylbenzenesulfonamide formate]	9.55	1.16	28.9
O=S(=O)(Nc1nccs1)c1ccc(OC2CCN(Cc3ccc(C(F)(F)F)cc3)CC2)c(Cl)c1 [Example 23, 3-chloro-N-(thiazol-2-yl)-4-((1-(4-(trifluoromethyl)benzyl)piperidin-4-yl)oxy)benzenesulfonamide 2,2,2-trifluoroacetate]	> 30	> 30	29.6
Cc1c(N(C)[C@H]2CCN(Cc3cc(F)ccc3F)C2)ccc(S(=O)(=O)Nc2cscn2)c1F [Example 322, (S)-4-((1-(2,5-difluorobenzyl)-pyrrolidin-3-yl)(methyl)amino)-2-fluoro-3-methyl-N-(thiazol-4-yl)benzenesulfonamide 2,2,2-trifluoroacetate]	6.02	0.237	7.35
O=S(=O)(Nc1nccs1)c1ccc(OC2CCN(Cc3ccccc3C(F)(F)F)CC2)c(Cl)c1 [Example 12, 3-chloro-N-(thiazol-2-yl)-4-((1-(2-(trifluoromethyl)benzyl)piperidin-4-yl)oxy)benzenesulfonamide]	13.3	13.3	6.35
